{"source": "ChEMBL document CHEMBL5543167", "about": "“Design, Synthesis, and Biological Evaluation of Novel EGFR PROTACs Targeting C797S Mutation” (J Med Chem, 2024)", "key": {"[1]": {"system": "Protein cereblon/Epidermal growth factor receptor (Homo sapiens), P00533+Q96SW2 [L858R,T790M,C797S]", "assay": "PROTAC activity at CRBN/EGFR L858R/T790M/C797S mutant in human H1975-TM cells assessed as induction of EGFR degradation by measuring remaining activity at 1.2 nM incubated for 24 hrs by Western blot analysis (reference value: 100%)", "format": "cell-based"}, "[2]": {"system": "Protein cereblon/Epidermal growth factor receptor (Homo sapiens), P00533+Q96SW2 [L858R,T790M,C797S]", "assay": "PROTAC activity at CRBN/EGFR L858R/T790M/C797S mutant in human H1975-TM cells assessed as induction of EGFR degradation by measuring remaining activity at 11 nM incubated for 24 hrs by Western blot analysis (reference value: 100%)", "format": "cell-based"}, "[3]": {"system": "Protein cereblon/Epidermal growth factor receptor (Homo sapiens), P00533+Q96SW2 [L858R,T790M,C797S]", "assay": "PROTAC activity at CRBN/EGFR L858R/T790M/C797S mutant in human H1975-TM cells assessed as induction of EGFR degradation by measuring remaining activity at 300 nM incubated for 24 hrs by Western blot analysis (reference value: 100%)", "format": "cell-based"}, "[4]": {"system": "Protein cereblon/Epidermal growth factor receptor (Homo sapiens), P00533+Q96SW2 [L858R,T790M,C797S]", "assay": "PROTAC activity at CRBN/EGFR L858R/T790M/C797S mutant in human H1975-TM cells assessed as induction of EGFR degradation by measuring remaining activity at 100 nM incubated for 12 hrs by Western blot analysis (reference value: 100%)", "format": "cell-based"}, "[5]": {"system": "Protein cereblon/Epidermal growth factor receptor (Homo sapiens), P00533+Q96SW2 [L858R,T790M,C797S]", "assay": "PROTAC activity at CRBN/EGFR L858R/T790M/C797S mutant in human H1975-TM cells assessed as induction of EGFR degradation by measuring remaining activity at 100 nM preincubated for 24 hrs followed by compound washout and measured after 3 hrs by Western blot analysis (reference value: 100%)", "format": "cell-based"}, "[6]": {"system": "Protein cereblon/Epidermal growth factor receptor (Homo sapiens), P00533+Q96SW2 [L858R,T790M,C797S]", "assay": "PROTAC activity at CRBN/EGFR L858R/T790M/C797S mutant in human H1975-TM cells assessed as induction of EGFR degradation by measuring remaining activity at 100 nM preincubated for 24 hrs followed by compound washout and measured after 12 hrs by Western blot analysis (reference value: 100%)", "format": "cell-based"}, "[7]": {"system": "Protein cereblon/Epidermal growth factor receptor (Homo sapiens), P00533+Q96SW2 [L858R,T790M,C797S]", "assay": "PROTAC activity at CRBN/EGFR L858R/T790M/C797S mutant in human H1975-TM cells assessed as induction of EGFR degradation by measuring remaining activity at 50 nM preincubated with lenalidomide for 6 hrs followed by compound addition and measured after 24 hrs by Western blot analysis (reference value: 100%)", "format": "cell-based"}, "[8]": {"assay": "Antiproliferative activity against human PC-9-TM cells harboring EGFR exon 19 deletion/T790M/[…] mutant assessed as inhibition of cell proliferation incubated for 72 hrs by CCK8 assay", "format": "functional, cell-based"}, "A549": {"system": "A549", "assay": "Antiproliferative activity against human A549 cells harboring wildtype EGFR assessed as inhibition of cell proliferation incubated for 72 hrs by CCK8 assay", "format": "functional, cell-based", "settings": "A549, 72 h"}, "[9]": {"molecular_target": "Cyclin-dependent kinase 12 (Homo sapiens) (UniProt Q9NYV4)", "sequence (Q9NYV4 whole entry, looked up)": "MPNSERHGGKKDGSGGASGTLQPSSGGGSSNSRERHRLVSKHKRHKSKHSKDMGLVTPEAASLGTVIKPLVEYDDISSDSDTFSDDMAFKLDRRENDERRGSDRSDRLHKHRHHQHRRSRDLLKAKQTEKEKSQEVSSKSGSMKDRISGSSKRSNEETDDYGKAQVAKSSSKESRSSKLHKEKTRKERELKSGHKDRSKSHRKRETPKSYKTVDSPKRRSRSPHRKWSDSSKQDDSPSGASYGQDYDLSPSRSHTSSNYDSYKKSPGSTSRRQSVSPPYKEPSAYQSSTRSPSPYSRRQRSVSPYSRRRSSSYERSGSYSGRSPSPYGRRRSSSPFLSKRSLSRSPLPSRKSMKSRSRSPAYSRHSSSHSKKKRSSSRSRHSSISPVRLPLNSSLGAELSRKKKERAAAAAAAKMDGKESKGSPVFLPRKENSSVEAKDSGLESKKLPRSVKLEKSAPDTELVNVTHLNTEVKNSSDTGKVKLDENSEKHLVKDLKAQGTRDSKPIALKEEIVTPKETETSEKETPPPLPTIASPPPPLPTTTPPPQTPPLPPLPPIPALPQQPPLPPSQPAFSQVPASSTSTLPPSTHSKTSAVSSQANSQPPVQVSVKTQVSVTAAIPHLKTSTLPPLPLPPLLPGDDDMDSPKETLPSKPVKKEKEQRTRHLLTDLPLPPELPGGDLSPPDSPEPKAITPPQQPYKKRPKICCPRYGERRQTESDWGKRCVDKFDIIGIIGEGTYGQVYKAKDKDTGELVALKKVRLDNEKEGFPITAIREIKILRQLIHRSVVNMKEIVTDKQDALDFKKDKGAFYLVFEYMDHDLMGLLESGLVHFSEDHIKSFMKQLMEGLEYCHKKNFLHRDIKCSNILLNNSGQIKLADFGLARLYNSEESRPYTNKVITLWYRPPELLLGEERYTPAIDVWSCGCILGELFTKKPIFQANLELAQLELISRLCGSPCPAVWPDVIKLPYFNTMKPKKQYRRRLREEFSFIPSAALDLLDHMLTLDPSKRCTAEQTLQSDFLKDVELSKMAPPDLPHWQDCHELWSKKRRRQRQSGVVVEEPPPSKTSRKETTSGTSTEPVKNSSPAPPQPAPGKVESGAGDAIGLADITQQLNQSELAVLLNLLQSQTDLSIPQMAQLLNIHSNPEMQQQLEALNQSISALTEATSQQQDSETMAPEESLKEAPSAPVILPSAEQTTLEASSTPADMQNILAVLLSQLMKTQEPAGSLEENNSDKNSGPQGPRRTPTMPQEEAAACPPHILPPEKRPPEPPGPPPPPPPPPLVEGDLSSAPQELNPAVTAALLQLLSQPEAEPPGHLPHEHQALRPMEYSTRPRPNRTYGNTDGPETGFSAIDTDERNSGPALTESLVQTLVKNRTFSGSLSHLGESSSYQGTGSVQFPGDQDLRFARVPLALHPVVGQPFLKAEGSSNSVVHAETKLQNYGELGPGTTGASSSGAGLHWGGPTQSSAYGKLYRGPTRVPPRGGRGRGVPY", "assay": "Induction of CDK12 degradation in human H1975-TM cells at 50 nM incubated for 24 hrs", "format": "cell-based"}, "[10]": {"molecular_target": "Cyclin-dependent kinase 16 (Homo sapiens) (UniProt Q00536)", "sequence (Q00536 whole entry)": "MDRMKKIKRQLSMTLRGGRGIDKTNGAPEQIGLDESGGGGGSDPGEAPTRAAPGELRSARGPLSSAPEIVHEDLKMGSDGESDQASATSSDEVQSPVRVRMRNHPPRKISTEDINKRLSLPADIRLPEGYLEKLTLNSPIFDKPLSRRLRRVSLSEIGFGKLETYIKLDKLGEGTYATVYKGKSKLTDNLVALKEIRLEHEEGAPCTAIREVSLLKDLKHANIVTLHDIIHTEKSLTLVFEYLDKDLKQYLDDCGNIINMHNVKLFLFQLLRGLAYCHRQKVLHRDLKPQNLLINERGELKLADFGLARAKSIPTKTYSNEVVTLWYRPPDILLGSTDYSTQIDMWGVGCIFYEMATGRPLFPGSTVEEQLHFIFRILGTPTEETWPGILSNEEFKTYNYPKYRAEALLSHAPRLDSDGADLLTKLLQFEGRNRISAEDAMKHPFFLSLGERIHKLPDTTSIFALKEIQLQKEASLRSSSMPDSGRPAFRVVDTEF", "assay": "Induction of CDK16 degradation in human H1975-TM cells at 50 nM incubated for 24 hrs", "format": "cell-based"}, "[11]": {"molecular_target": "Probable U3 small nucleolar RNA-associated protein 11 (Homo sapiens) (UniProt Q9Y3A2)", "sequence (Q9Y3A2 whole entry)": "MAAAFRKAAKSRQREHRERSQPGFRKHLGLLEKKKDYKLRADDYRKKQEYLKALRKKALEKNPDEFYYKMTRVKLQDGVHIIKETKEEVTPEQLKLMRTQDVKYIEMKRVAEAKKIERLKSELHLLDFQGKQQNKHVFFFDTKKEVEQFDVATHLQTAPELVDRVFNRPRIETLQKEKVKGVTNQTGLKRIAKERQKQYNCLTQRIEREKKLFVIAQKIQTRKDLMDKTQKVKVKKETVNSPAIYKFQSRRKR", "assay": "Induction of UTP11 degradation in human H1975-TM cells at 50 nM incubated for 24 hrs", "format": "cell-based"}, "[12]": {"molecular_target": "Aurora kinase B (Homo sapiens) (UniProt Q96GD4)", "sequence (Q96GD4 whole entry)": "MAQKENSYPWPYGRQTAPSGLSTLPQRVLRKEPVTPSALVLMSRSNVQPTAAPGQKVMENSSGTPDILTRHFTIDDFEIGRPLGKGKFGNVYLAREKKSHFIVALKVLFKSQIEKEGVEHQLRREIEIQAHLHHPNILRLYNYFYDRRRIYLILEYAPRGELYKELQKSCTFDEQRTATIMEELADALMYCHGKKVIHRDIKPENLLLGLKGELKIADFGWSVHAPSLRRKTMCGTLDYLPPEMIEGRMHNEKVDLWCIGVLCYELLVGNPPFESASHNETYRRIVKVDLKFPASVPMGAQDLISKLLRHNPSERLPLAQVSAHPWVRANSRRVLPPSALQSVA", "assay": "Induction of AURKB degradation in human H1975-TM cells at 50 nM incubated for 24 hrs", "format": "cell-based"}, "[13]": {"molecular_target": "Sodium-coupled neutral amino acid symporter 2 (Homo sapiens) (UniProt Q96QD8)", "sequence (Q96QD8 whole entry)": "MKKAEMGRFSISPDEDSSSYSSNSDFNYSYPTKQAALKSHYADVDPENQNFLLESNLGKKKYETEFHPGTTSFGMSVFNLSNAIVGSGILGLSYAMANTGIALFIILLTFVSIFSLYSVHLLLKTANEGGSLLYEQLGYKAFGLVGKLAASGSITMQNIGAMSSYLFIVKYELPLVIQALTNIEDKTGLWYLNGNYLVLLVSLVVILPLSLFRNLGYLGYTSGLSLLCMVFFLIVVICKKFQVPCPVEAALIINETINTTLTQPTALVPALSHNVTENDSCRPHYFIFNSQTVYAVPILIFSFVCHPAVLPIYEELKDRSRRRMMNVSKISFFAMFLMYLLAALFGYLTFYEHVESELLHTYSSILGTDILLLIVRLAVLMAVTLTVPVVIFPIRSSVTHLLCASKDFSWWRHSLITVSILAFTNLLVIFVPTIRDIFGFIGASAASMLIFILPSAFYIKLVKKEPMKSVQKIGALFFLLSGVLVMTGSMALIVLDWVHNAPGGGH", "assay": "Induction of SLC38A2 degradation in human H1975-TM cells at 50 nM incubated for 24 hrs", "format": "cell-based"}, "[14]": {"molecular_target": "Hepatocyte growth factor receptor (Homo sapiens) (UniProt P08581)", "assay": "Induction of MET degradation in human H1975-TM cells at 50 nM incubated for 24 hrs", "format": "cell-based"}, "[15]": {"assay": "Inhibition of colony formation in human H1975-TM cells harboring EGFR L858R/T790M/C797S mutant at 33 nM incubated for 14 days by crystal violet staining based analysis relative to control", "format": "functional", "settings": "336 h, time 14 day"}, "H1975-TM [16]": {"system": "H1975-TM", "assay": "Induction of apoptosis in human H1975-TM cells harboring EGFR L858R/T790M/C797S mutant incubated for 24 hrs by Annexin V-FITC/PI staining based flow cytometric analysis", "format": "functional, cell-based", "settings": "dose 33-100 nM"}, "[17]": {"molecular_target": "Epidermal growth factor receptor (Homo sapiens) (UniProt P00533)", "sequence (P00533 whole entry)": "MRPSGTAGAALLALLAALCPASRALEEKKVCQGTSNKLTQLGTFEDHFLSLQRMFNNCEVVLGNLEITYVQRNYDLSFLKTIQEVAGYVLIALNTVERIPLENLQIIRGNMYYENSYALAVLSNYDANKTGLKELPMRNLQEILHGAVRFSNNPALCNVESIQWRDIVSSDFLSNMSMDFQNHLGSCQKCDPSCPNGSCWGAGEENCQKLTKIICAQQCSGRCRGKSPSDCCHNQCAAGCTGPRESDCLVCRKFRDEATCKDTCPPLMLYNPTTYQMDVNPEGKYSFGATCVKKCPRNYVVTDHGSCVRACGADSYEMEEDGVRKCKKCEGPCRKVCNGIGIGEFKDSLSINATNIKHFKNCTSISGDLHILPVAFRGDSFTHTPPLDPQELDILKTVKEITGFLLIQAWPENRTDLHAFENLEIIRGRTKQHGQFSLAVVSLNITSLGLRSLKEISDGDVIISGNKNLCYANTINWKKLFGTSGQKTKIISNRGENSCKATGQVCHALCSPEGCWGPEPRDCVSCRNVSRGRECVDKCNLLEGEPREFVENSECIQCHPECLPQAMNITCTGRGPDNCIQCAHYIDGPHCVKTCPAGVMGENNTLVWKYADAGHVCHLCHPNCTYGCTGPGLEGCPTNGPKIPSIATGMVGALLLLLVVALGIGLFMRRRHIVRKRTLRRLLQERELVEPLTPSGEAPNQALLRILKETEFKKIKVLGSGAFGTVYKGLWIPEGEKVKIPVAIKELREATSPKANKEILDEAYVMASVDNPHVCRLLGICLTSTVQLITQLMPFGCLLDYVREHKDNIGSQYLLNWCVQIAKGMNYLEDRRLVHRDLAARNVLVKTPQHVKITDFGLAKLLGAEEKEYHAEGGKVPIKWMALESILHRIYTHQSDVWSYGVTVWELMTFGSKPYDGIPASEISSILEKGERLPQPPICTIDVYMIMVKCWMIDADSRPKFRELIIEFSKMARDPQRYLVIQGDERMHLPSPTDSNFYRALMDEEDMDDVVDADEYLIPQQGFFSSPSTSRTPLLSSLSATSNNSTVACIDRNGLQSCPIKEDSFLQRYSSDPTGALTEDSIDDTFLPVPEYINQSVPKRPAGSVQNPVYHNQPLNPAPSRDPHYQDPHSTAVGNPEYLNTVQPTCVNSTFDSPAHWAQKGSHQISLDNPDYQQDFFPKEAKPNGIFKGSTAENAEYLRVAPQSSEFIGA", "assay": "Inhibition of EGFR signaling in human H1975-TM cells harboring EGFR L858R/T790M/C797S mutant assessed as reduction in ERK activation by Western blot analysis", "format": "cell-based", "settings": "dose 1.2-300 nM"}, "[18]": {"assay": "Antitumor activity against human H1975-TM cells xenografted in BALB/c nude mouse assessed as tumor growth inhibition at 100 mg/kg, po administered once daily for 31 days relative to control", "format": "functional", "settings": "744 h, time 31 day, read-out: TGI"}, "H1975-TM [19]": {"system": "H1975-TM", "assay": "Antitumor activity against human H1975-TM cells xenografted in BALB/c nude mouse assessed as increase in tumor necrosis at 25 to 100 mg/kg, po administered once daily for 31 days by H&E staining based light microscopic analysis", "format": "functional, organism-based", "settings": "dose 25-100 mg/kg, time 31.0 day"}, "Mus musculus": {"system": "Mus musculus", "assay": "In vivo PROTAC activity at CRBN/EGFR L858R/T790M/C797S mutant in BALB/c nude mouse xenografted with human […] cells assessed as decrease in EGFR protein level in tumor at 25 to 100 mg/kg, po administered once daily for 31 days by Western blot analysis", "format": "functional, organism-based", "settings": "dose 25-100 mg/kg, time 31.0 day"}, "[20]": {"assay": "Toxicity in BALB/c nude mouse xenografted with human H1975-TM cells assessed as heart lesions at 25 to 100 mg/kg, po administered once daily for 31 days by Hematoxylin and eosin staining based analysis", "format": "organism-based", "settings": "in vivo, 744 h, dose 25-100 mg/kg, time 31 day"}, "[21]": {"assay": "Toxicity in BALB/c nude mouse xenografted with human H1975-TM cells assessed as spleen lesions at 25 to 100 mg/kg, po administered once daily for 31 days by Hematoxylin and eosin staining based analysis", "format": "organism-based", "settings": "in vivo, 744 h, dose 25-100 mg/kg, time 31 day"}, "[22]": {"assay": "Toxicity in BALB/c nude mouse xenografted with human H1975-TM cells assessed as lung lesions at 25 to 100 mg/kg, po administered once daily for 31 days by Hematoxylin and eosin staining based analysis", "format": "organism-based", "settings": "in vivo, 744 h, dose 25-100 mg/kg, time 31 day"}, "[23]": {"assay": "Toxicity in BALB/c nude mouse xenografted with human H1975-TM cells assessed as kidney lesions at 25 to 100 mg/kg, po administered once daily for 31 days by Hematoxylin and eosin staining based analysis", "format": "organism-based", "settings": "in vivo, 744 h, dose 25-100 mg/kg, time 31 day"}, "[24]": {"assay": "Cmax in male Sprague-Dawley rat at 5 mg/kg, iv measured after 24 hrs by LC-MS/MS analysis", "format": "ADME, organism-based", "settings": "in vivo"}, "[25]": {"assay": "MRT (0 to infinity) in male Sprague-Dawley rat at 5 mg/kg, iv measured after 24 hrs by LC-MS/MS analysis", "format": "ADME, organism-based", "settings": "in vivo"}, "[26]": {"assay": "MRT (0 to infinity) in male Sprague-Dawley rat at 50 mg/kg, po measured after 24 hrs by LC-MS/MS analysis", "format": "ADME, organism-based", "settings": "in vivo"}, "[27]": {"assay": "Oral bioavailability in Sprague-Dawley rat at 50 mg/kg measured after 24 hrs by LC-MS/MS analysis", "format": "ADME, organism-based", "settings": "in vivo"}}, "note": "The source made the active and inactive calls. No cut-off for these calls is given here."}
{"compound": "CCS(=O)(=O)n1cc(-c2nc(Nc3ccc(N4CCN(CCCCCCC(=O)Nc5cccc6c5CN(C5CCC(=O)NC5=O)C6=O)CC4)cc3)ncc2C(F)(F)F)c2ccccc21", "note": "(centres undefined)", "values": [{"measurement": "Activity", "setting": "[1]", "value": 107, "unit": "%"}, {"measurement": "Activity", "setting": "[2]", "value": 33.5, "unit": "%"}, {"measurement": "Activity", "setting": "[3]", "value": 0.1, "unit": "%"}, {"measurement": "Activity", "setting": "[4]", "value": 44.5, "unit": "%"}, {"measurement": "Activity", "setting": "[5]", "value": 8.5, "unit": "%"}, {"measurement": "Activity", "setting": "[6]", "value": 49.7, "unit": "%"}, {"measurement": "Activity", "setting": "[7]", "value": 56.4, "unit": "%"}, {"measurement": "IC50", "setting": "[8]", "value": 43.5, "unit": "nM"}, {"measurement": "IC50", "setting": "A549", "value": 97.5, "unit": "nM"}, {"measurement": "Activity", "setting": "[9]", "value": "Active"}, {"measurement": "Activity", "setting": "[10]", "value": "Active"}, {"measurement": "Activity", "setting": "[11]", "value": "Active"}, {"measurement": "Activity", "setting": "[12]", "value": "Active"}, {"measurement": "Activity", "setting": "[13]", "value": "Active"}, {"measurement": "Activity", "setting": "[14]", "value": "Active"}, {"measurement": "inhibition at 0.033 µM", "setting": "[15]", "value": "~100", "unit": "%"}, {"measurement": "Activity", "setting": "H1975-TM [16]", "value": "Dose-Dependent Effect"}, {"measurement": "inhibition", "setting": "[17]", "value": "Dose-Dependent Effect"}, {"measurement": "inhibition in vivo at 100 mg/kg", "setting": "[18]", "value": 66.4, "unit": "%"}, {"measurement": "Activity", "setting": "H1975-TM [19]", "value": "Active"}, {"measurement": "Activity", "setting": "Mus musculus", "value": "Active"}, {"measurement": "Activity", "setting": "[20]", "value": "Non-Toxic"}, {"measurement": "Activity", "setting": "[21]", "value": "Non-Toxic"}, {"measurement": "Activity", "setting": "[22]", "value": "Non-Toxic"}, {"measurement": "Activity", "setting": "[23]", "value": "Non-Toxic"}, {"measurement": "Cmax", "setting": "[24]", "value": 4600, "unit": "ng/mL"}, {"measurement": "MRT inf", "setting": "[25]", "value": 18.4, "unit": "h"}, {"measurement": "MRT inf", "setting": "[26]", "value": 21.4, "unit": "h"}, {"measurement": "bioavailability", "setting": "[27]", "value": 4.2, "unit": "%"}]}
